Measured values as given in patent publication EP0298466A2, “Substituted alkene carboxylic acid amides and derivatives” (F. HOFFMANN-LA ROCHE AG, priority 1987, dated 1989).

Legend:
[1] = tested on: PAF Induced Bronchoconstriction; assay: PAF Induced Bronchoconstriction Assay; type: in vivo, guinea pigs; conditions: Cavia porcellus; 1mg/Kg iv, 1 minute pretreatment, guinea pig, PAF challenge 1.0µg/kg intravenous; percent inhibition, spread = standard error of the mean
Method: Male guinea pigs (Hartley Strain, 400-500 g) were anesthetized with urethane (2 g/kg, i.p.). Each animals' trachea was cannulated and the guinea pigs were respirated using a Harvard small animal rodent respirator (3.0 cc stroke volume, 40 breaths per min.). Tracheal pressure was recorded from a cannula inserted in the trachea and connected to a Statham pressure Transducer.
The jugular vein was cannulated for administering compounds. Spontaneous breathing was arrested with succinylcholine (1.2 mg/kg, i.v.) administered 2 minutes prior to intravenous injection of platelet activating factor (PAF).
For the intravenous testing, the guinea pig is given a 5-minute pretreatment with propranolol at a dose of 0.1 mg/kg intravenously. The test compound is administered with a 1 minute pretreatment prior to intravenous challenge with PAF. The animal is then challenged with a 1.0µg/kg intravenous dose of PAF and the change in tracheal pressure is measured.
The change in tracheal pressure is determined by subtracting the steady state baseline achieved after administration of succinylcholine from the peak bronchoconstriction seen after challenge with PAF. The mean is calculated for each test compound and compared to the mean of the control animals to give the percent inhibition of bronchoconstriction. The standard error is calculated as the standard error of the mean.

PAF Binding = target: T1, PAF Binding (Canis lupus familiaris, UniProt A0A8I3NSH0); assay: PAF binding assay (³H-PAF, dog platelets); conditions: washed dog platelets (2 x 10⁷ platelets), 10 minutes at room temperature, read-out: Inhibition of PAF Binding IC₅₀
T1 construct: from tissue; host or cells: washed platelets from dog blood
T1 sequence (A0A8I3NSH0 1-343): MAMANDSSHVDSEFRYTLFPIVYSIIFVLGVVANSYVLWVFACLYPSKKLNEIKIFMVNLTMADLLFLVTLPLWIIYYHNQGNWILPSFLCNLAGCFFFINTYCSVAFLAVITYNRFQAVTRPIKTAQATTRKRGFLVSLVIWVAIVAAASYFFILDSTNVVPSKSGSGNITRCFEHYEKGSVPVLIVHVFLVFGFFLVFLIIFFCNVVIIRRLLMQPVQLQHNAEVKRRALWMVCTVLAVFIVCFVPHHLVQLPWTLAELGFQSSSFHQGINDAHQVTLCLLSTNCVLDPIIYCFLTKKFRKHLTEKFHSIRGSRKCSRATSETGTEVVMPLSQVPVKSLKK
Method: The binding assay was done in 400 µl polyethylene microcentrifuge tubes (Beckman) containing 50 µl of an oil mixture of 2 parts of Siliconol AR200 (Serva) and 1 part of Silicone Fluid (Arthur H. Thomas). Buffer, standards, or analogs (150 µl total volume) were added to the tubes. Radiolabelled ³H-PAF (50 µl) was then added to the tubes. The reaction was started by the addition of 50 µl of dog platelets (2 x 10⁷ platelets). The tubes were capped, inverted several times to mix, and incubated for 10 minutes at room temperature. The platelets were separated from the incubation mixture by centrifuging 1 minute in a Beckman Microfuge B centrifuge. The tip of the tubes were cut off, and the platelets were washed out of the tips with 200 µl of 50% methanol (Burdick and Jackson). Aquasol (NEN, 10 ml) was added and the radioactivity in the samples was determined using an LS 8100 Beckman liquid scintillation counter linked to a Techtran tape recorder. Data was processed through an in-house computer system. Alternatively, radioactivity was determined using a Searle Mark III liquid scintillation counter linked to a Iso-Data microprocessor.
Blood was collected from anesthesized or unanesthesized dogs into 50 ml plastic centrifuge tubes containing 3.8% sodium citrate as the anticoagulant (1 volume of citrate/9 volumes of blood). The red cells were removed by centrifugation for 15 minutes at 600 rpm (100-125 g) at room temperature. An aliquot of the supernatant platelet rich plasma (PRP) was saved for cell counting and the remainder was acidified to pH 6.5 with 0.15 M citric acid. The platelet pellet was obtained after a 10 minute centrifugation at 2000 rpm (1000 g) at room temperature. Washed platelets were prepared by resuspending the platelet pellet once with PBS containing 1 mM of EDTA, centrifuging as noted, and then resuspending the platelets in 0.1% of BSA/PBS. An aliquot of the washed platelets was counted. Platelets used for binding assays were diluted to 2 x 10⁷ platelets/assay tube (4 x 10⁸ platelets/ml). Platelet counting was done using a Royco Cell-Crit 921.

[2] = target: T2, Thromboxane Synthase (TXA₂ syn.) (Homo sapiens, UniProt P24557); assay: TXA₂ Synthesis Inhibition (microsomal fractions from human platelets); type: biochemical; conditions: human platelet microsomes, ¹⁴C-PGH₂ 10µM, 22° for 2 minutes; read-out: Inhibition of TXA₂ Synthetase IC₅₀
T2 construct: using microsomal fractions from human platelets as enzyme source; from tissue; host or cells: microsomal fraction of human platelets
T2 sequence (P24557 1-533): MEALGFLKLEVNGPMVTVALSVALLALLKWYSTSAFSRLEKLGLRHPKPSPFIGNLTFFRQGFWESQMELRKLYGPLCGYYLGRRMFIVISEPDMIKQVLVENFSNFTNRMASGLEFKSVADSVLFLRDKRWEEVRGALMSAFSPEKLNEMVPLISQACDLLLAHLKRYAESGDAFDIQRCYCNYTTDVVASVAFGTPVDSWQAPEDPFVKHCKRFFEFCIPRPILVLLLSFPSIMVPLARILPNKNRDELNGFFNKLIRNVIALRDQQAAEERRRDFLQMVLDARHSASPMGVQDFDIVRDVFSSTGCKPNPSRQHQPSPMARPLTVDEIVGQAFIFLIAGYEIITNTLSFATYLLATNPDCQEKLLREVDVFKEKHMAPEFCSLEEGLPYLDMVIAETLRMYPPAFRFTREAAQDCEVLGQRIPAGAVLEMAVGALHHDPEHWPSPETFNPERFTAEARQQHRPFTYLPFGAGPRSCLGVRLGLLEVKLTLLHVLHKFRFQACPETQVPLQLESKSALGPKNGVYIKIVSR
Method: Thromboxane Synthase (TXA₂ syn.) inhibitory activity is measured by following the conversion of […] using microsomal fractions from human platelets as enzyme source. In the aqueous incubation medium, the TXA₂ decomposes rapidly into TXB₂. The amount of TXA₂ syn, is adjusted so that under the conditions of the assay approximately 80-90% of the substrate, PGH₂, is converted to product in control tubes. To prepare ¹⁴C-PGH₂, ¹⁴C-AA(50-60mCi/mmole) is incubated with sheep seminal vesicular gland microsomes for 1.5 min, at 37° and then the ¹⁴C-PGH₂ is extracted with diethylether, purified on columns of Sephadex LH-20 or silicic acid, and stored in acetone at -70°C. Incubations are done as follows, Sufficient ¹⁴C-PGH₂ to yield a final substrate concentration of 10µM (about 30,000 cpm) is added to the incubation tubes and then the acetone is removed under nitrogen. The tubes are placed in an ice bath and then 215 µl of ice cold phosphate buffered saline, 10 µl of ethanol (control) or of test drug in ethanol and 25 µl of the microsomal suspension are added with mixing in that order as rapidly as possible. The tubes are incubated at 22° for 2 minutes, the reaction is stopped and then the radioactive products and the unconverted PGH₂ are extracted and analyzed by thin layer chromatography. The amount of ¹⁴C-PGH₂ converted to products is analyzed by thin layer chromatography. The amount of ¹⁴C-PGH₂ converted to products was used as a measure of TXA₂ synthase activity. Inhibitors were tested initially at a concentration of 100 µM. IC₅₀ values were calculated by linear regression analysis of successive 10 fold dilutions of the test compound concentration.

Row | SMILES | inhibition in vivo at 1 mg/kg [1] [%] | IC50 (PAF Binding) [nM] | IC50 [2] [nM]
1 | CCCCc1c(/C=C/C(=O)N[C@H](C)CCCc2cccnc2)ccc2cc(OC)ccc12 [[R-(E)]-3-(1-Butyl-6-methoxy-2-naphthalenyl)-N-[1-methyl-4-(3-pyridinyl)butyl]-2-propenamide] | 95 ± 1 | 7 | 
2 | O=C(CCCCC=C(c1ccccc1)c1ccccc1)NCCCCc1cccnc1 [7,7-Diphenyl-N-[4-(3-pyridinyl)butyl]-6-heptenamide] |  |  | 100 to 10000
3 | CCCCc1c(/C=C/C(=O)N[C@H](C)CCCc2cccnc2)cc(OC)c2ccc(OC)cc12 [[R-(E)]-3-(1-Butyl-4,7-dimethoxy-2-naphthalenyl)-N-[1-methyl-4-(3-pyridinyl)butyl]-2-propenamide] | 80 | 3 | 
4 | COc1ccc(-c2c(/C=C/C(=O)N[C@H](C)CCCc3cccnc3)ccc3cc(OC)ccc23)cc1 [[R-(E)]-3-[6-Methoxy-1-(4-methoxyphenyl)-2-naphthalenyl]-N-[1-methyl-4-(3-pyridinyl)butyl]-2-propenamide] | 92 | 55 | 
5 | O=C(CCCC=C(c1ccccc1)c1ccccc1)NCCCCc1cccnc1 [6,6-Diphenyl-N-[4-(3-pyridinyl)butyl]-5-hexenamide] |  |  | 100
6 | O=C(CCCCCCC=C(c1ccccc1)c1ccccc1)NCCCCc1cccnc1 [9,9-Diphenyl-N-[4-(3-pyridinyl)butyl]-8-nonenamide] |  |  | 10 to 100
7 | COc1ccc(C2=C(/C=C/C(=O)N[C@H](C)CCCc3cccnc3)CCc3cc(OC)ccc32)cc1 [[R-(E)]-3-[3,4-Dihydro-6-methoxy-1-(4-methoxyphenyl)-2-naphthalenyl]-N-[1-methyl-4-(3-pyridinyl)butyl]-2-propenamide] | 95 ± 2 | 30 | 
8 | CCCCCc1c(/C=C/C(=O)N[C@H](C)CCCc2cccnc2)oc2cc(OC)ccc12 [[R-(E)]-3-(6-Methoxy-3-pentylbenzofuran-2-yl)-N-[1-methyl-4-(3-pyridinyl)butyl]-2-propenamide] | 89 |  | 
9 | COc1ccc(C(=CCCC(=O)NCCCCc2cccnc2)c2ccc(OC)cc2)cc1 [5,5-bis(4-methoxyphenyl)-N-[4-(3-pyridinyl)butyl]-4-pentenamide] |  |  | 1000 to 10000
10 | CCCCC1=C(/C=C/C(=O)N[C@H](C)CCCc2cccnc2)CCc2cc(OC)ccc21 [[R-(E)]-3-(1-Butyl-3,4-dihydro-6-methoxy-2-naphthalenyl)-N-[1-methyl-4-(3-pyridinyl)butyl]-2-propenamide] | 94 ± 2 |  | 
11 | O=C(CCCCCC=C(c1ccccc1)c1ccccc1)NCCCCc1cccnc1 [8,8-Diphenyl-N-[4-(3-pyridinyl)butyl]-7-octenamide] |  |  | 100 to 1000
12 | O=C(CC=C(c1ccccc1)c1ccccc1)NCCCCc1cccnc1 [4,4-Diphenyl-N-[4-(3-pyridinyl)butyl]-3-butenamide] |  |  | 1000
13 | CCCCCC1=C(/C=C/C(=O)N[C@H](C)CCCc2cccnc2)Cc2cc(OC)ccc21 [[R-(E)]-3-(6-methoxy-3-pentylindene-2-yl)-N-[1-methyl-4-(3-pyridinyl)butyl]-2-propenamide] | 96 | 33 | 
14 | CCCCc1c(/C=C/C(=O)N[C@H](C)CCCc2cccnc2)cc(OC)c2ccccc12 [[R-(E)]-3-(1-Butyl-4-methoxy-2-naphthalenyl)-N-[1-methyl-4-(3-pyridinyl)butyl]-2-propenamide] | 90 | 1 | 
15 | CCCCCc1c(/C=C/C(=O)N[C@H](C)CCCc2cccnc2)sc2cc(OC)ccc12 [[R-(E)]-3-(6-Methoxy-3-pentylbenzo-[b]thien-2-yl)-N-[1-methyl-4-(3-pyridinyl)butyl]-2-propenamide] | 98 | 24 | 
16 | CCCCc1c(/C=C/C(=O)N[C@H](C)CCCc2cccnc2)ccc2ccc(OC)cc12 [[R-(E)]-3-(1-Butyl-7-methoxy-2-naphthalenyl)-N-[1-methyl-4-(3-pyridinyl)butyl]-2-propenamide] |  | 15 | 
17 | O=C(C=C(c1ccccc1)c1ccccc1)NCCCCc1cccnc1 [3,3-Diphenyl-N-[4-(3-pyridinyl)butyl]-2-propenamide] |  |  | 100 to 1000
18 | O=C(CCC=C(c1ccc(F)cc1)c1ccc(F)cc1)NCCCCc1cccnc1 [5,5-bis(4-fluorophenyl)-N-[4-(3-pyridinyl)butyl]-4-pentenamide] |  |  | 1000 to 10000
19 | O=C(CCC=C(c1ccccc1)c1ccccc1)NCCCCc1cccnc1 [5,5-Diphenyl-N-[4-(3-pyridinyl)butyl]-4-pentenamide] |  |  | 100 to 1000
20 | CCCCc1c(/C=C/C(=O)N[C@H](C)CCCc2cccnc2)ccc2c(OC)cccc12 [[R-(E)]-3-(1-Butyl-5-methoxy-2-naphthalenyl)-N-[1-methyl-4-(3-pyridinyl)butyl]-2-propenamide] | 50 | 6 | 
21 | COc1cccc(-c2c(/C=C/C(=O)NCCCCc3cccnc3)ccc3ccc(OC)cc23)c1 [(E)-3-[7-methoxy-1-(3-methoxyphenyl)-2-naphthalenyl]-N-[4-(3-pyridinyl)butyl]-2-propenamide] | 62 | 8 | 
